Test results as given in patent publication US20070185149A1, “Novel amido-substituted hydroxy-6-phenylphenanthridines and their use as pde4 inhibtors” (ALTANA PHARMA AG, priority 2004, published 2007).

Each compound was assayed against T1, PDE4B2 (Homo sapiens, UniProt Q07343) (assay: Inhibition of PDE4 activity: PDE4B2 [3H]cAMP SPA enzyme assay). Conditions: recombinant PDE4B2 (SF21 cell supernatant), modified SPA test, 0.5 μM cAMP, 15 min at 37° C.; read-out: Inhibition of the PDE4 activity, −log IC50 (converted).
T1 construct: made in house; host or cells: SF21 insect cells (baculovirus; virus prepared in SF9 cells)
Assay type: biochemical
Protocol: The PDE4B2 (GB no. M97515) was a gift of Prof. M. Conti (Stanford University, USA). It was amplified from the original plasmid (pCMV5) via PCR with primers Rb9 (5′-[…]-3′) and Rb10 (5′-[…]-3′) and cloned into the pCR-Bac vector (Invitrogen, Groningen, NL).
The recombinant baculovirus was prepared by means of homologous recombination in SF9 insect cells.
The expression plasmid was cotransfected with Bac-N-Blue (Invitrogen, Groningen, NL) or Baculo-Gold DNA (Pharmingen, Hamburg) using a standard protocol (Pharmingen, Hamburg). Wt virus-free recombinant virus supernatant was selected using plaque assay methods. After that, high-titre virus supernatant was prepared by amplifying 3 times. PDE was expressed in SF21 cells by infecting 2×10^6 cells/ml with an MOI (multiplicity of infection) between 1 and 10 in serum-free SF900 medium (Life Technologies, Paisley, UK). The cells were cultured at 28° C. for 48-72 hours, after which they were pelleted for 5-10 min at 1000 g and 4° C.
The SF21 insect cells were resuspended, at a concentration of approx. 10^7 cells/ml, in ice-cold (4° C.) homogenization buffer (20 mM Tris, pH 8.2, containing the following additions: 140 mM NaCl, 3.8 mM KCl, 1 mM EGTA, 1 mM MgCl2, 10 mM β-mercaptoethanol, 2 mM benzamidine, 0.4 mM Pefablock, 10 μM leupeptin, 10 μM pepstatin A, 5 μM trypsin inhibitor) and disrupted by ultrasonication. The homogenate was then centrifuged for 10 min at 1000×g and the supernatant was stored at −80° C. until subsequent use (see below). The protein content was determined by the Bradford method (BioRad, Munich) using BSA as the standard.
PDE4B2 activity is inhibited by the said compounds in a modified SPA (scintillation proximity assay) test, supplied by Amersham Biosciences (see procedural instructions “phosphodiesterase [3H]cAMP SPA enzyme assay, code TRKQ 7090”), carried out in 96-well microtitre plates (MTP's). The test volume is 100 μl and contains 20 mM Tris buffer (pH 7.4), 0.1 mg of BSA (bovine serum albumin)/ml, 5 mM Mg^2+, 0.5 μM cAMP (including about 50,000 cpm of [3H]cAMP), 1 μl of the respective substance dilution in DMSO and sufficient recombinant PDE (1000×g supernatant, see above) to ensure that 10-20% of the cAMP is converted under the said experimental conditions. […] After a preincubation of 5 min at 37° C., the reaction is started by adding the substrate (cAMP) and the assay is incubated for a further 15 min; after that, it is stopped by adding SPA beads (50 μl). In accordance with the manufacturer's instructions, the SPA beads had previously been resuspended in water, but were then diluted 1:3 (v/v) in water; the diluted solution also contains 3 mM IBMX to ensure a complete PDE activity stop. After the beads have been sedimented (>30 min), the MTP's are analyzed in commercially available […]. The corresponding IC50 values of the compounds for the inhibition of PDE activity are determined from the concentration-effect curves by means of non-linear regression.

T1 sequence (Q07343 1-564 isoform Q07343-2): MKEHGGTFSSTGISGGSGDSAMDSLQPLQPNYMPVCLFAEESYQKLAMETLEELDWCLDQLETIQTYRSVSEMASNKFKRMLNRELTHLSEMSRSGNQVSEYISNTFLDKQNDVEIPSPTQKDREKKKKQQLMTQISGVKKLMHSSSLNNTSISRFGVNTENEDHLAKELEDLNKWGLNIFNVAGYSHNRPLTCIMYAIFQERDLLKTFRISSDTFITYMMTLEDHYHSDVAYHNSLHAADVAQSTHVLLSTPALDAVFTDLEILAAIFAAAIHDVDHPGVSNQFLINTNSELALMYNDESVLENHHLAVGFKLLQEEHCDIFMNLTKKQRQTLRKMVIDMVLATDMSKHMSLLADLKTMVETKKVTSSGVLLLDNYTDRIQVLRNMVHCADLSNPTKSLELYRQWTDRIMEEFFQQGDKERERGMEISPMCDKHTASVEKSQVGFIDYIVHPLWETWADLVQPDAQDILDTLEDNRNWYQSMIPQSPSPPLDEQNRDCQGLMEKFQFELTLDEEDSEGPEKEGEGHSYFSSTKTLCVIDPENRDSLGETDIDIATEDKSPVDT

IC50, 0.955 to 8.71 nM:
COc1cc2c(cc1OC(F)F)[C@H]1C[C@H](O)CC[C@H]1N=C2c1ccc(C(=O)N2CCN(CC(=O)Nc3ccccn3)CC2)cc1 (racemic) [Compound 31, 2-[4(1-{4-[(2RS,4aRS,10bRS)-9-(1,1-Difluoro-methoxy)-2-hydroxy-8-methoxy-1,2,3,4,4a,10b-hexahydro-phenanthridin-6-yl]-phenyl}-methanoyl)-piperazin-1-yl]-N-pyridin-2-yl-acetamide]
COc1cc2c(cc1OC(F)F)C1CC(O)CCC1N=C2c1ccc(C(=O)N2CCN(CC(=O)N3CCOCC3)CC2)cc1 (stereo not drawn) [Compound 32, 2-[4-(1-{4-[(2RS,4aRS,10bRS)-9-(1,1-Difluoro-methoxy)-2-hydroxy-8-methoxy-1,2,3,4,4a,10bhexahydro-phenanthridin-6-yl]-phenyl}-methanoyl)-piperazin-1-yl]-1-morpholin-4-yl-ethanone]
COc1cc2c(cc1OC(F)F)[C@H]1C[C@H](O)CC[C@H]1N=C2c1ccc(C(=O)NC2CC2)cc1 (racemic) [Compound 25, N-Cyclopropyl-4-[(2RS,4aRS,10bRS)-9-(1,1-difluoro-methoxy)-2-hydroxy8-methoxy-1,2,3,4,4a,10b-hexahydro-phenanthridin-6-yl]-benzamide]
COc1cc2c(cc1OC)[C@H]1C[C@H](O)CC[C@H]1N=C2c1ccc(C(=O)NNC(=O)N2CCOCC2)cc1 (racemic) [Compound 22, 4-((2RS,4aRS,10bRS)-2-Hydroxy-8,9-dimethoxy-1,2,3,4,4a,10b-hexahydro-phenanthridin-6-yl)benzoic acid N′-(1-morpholin-4-yl-methanoyl)-hydrazide]
COc1cc2c(cc1OC)[C@H]1C[C@H](O)CC[C@H]1N=C2c1ccc(C(=O)N2CCN(CCN3CCOCC3)CC2)cc1 (racemic) [Compound 9, 1-[4-((2RS,4aRS,10bRS)-2-Hydroxy-8,9-dimethoxy-1,2,3,4,4a,10b-hexahydro-phenanthridin-6-yl)-phenyl]-1-[4-(2-morpholin-4-yl-ethyl)-piperazin-1-yl]methanone]
COc1cc2c(cc1OC)[C@H]1C[C@H](O)CC[C@H]1N=C2c1ccc(C(=O)NN2CCN(C)CC2)cc1 (racemic) [Compound 3, 4-((2RS,4aRS,10bRS)-2-Hydroxy-8,9-dimethoxy-1,2,3,4,4a,10b-hexahydro-phenanthridin-6-yl)-N-(4-methyl-piperazin-1-yl)benzamide]
COc1cc2c(cc1OC)C1CC(O)CCC1N=C2c1ccc(C(=O)NCCCN2CCOCC2)cc1 (centres unmarked) [Compound 2]
COc1cc2c(cc1OC)[C@H]1C[C@H](O)CC[C@H]1N=C2c1ccc(C(=O)N2CCN(CC(=O)N3CCOCC3)CC2)cc1 (racemic) [Compound 17, 2-(4-{1-[4-((2RS,4aRS,10bRS)-2-Hydroxy-8,9-dimethoxy-1,2,3,4,4a,10b-hexahydro-phenanthridin-6-yl)-phenyl]-methanoyl}-piperazin-1-yl)-1-morpholin-4-yl-ethanone]
COc1ccc(NC(=O)c2ccc(C3=N[C@@H]4CC[C@@H](O)C[C@@H]4c4cc(OC)c(OC)cc43)cc2)c(OC)n1 (racemic) [Compound 23, N-(2,6-Dimethoxy-pyridin-3-yl)-4-((2RS,4aRS,10bRS)-2-hydroxy-8,9-dimethoxy-1,2,3,4,4a,10b-hexahydro-phenanthridin-6-yl)benzamide]
COc1cc2c(cc1OC(F)F)C1CC(O)CCC1N=C2c1ccc(C(=O)N2CCN(CC(=O)N(C)C)CC2)cc1 (stereo not drawn) [Compound 34, 2-[4-(1-{4-[(2RS,4aRS,10bRS)-9-(1,1-Difluoro-methoxy)-2-hydroxy-8-methoxy-1,2,3,4,4a,10bhexahydro-phenanthridin-6-yl]-phenyl}-methanoyl)-piperazin-1-yl]-N,N-dimethyl-acetamide]
COc1cc2c(cc1OC)C1CC(O)CCC1N=C2c1ccc(C(=O)NN2CCOCC2)cc1 (centres unmarked) [Compound 4]
